This is an account of results in patent US12343347B2 (Biohaven Pharmaceutical Holding Company Ltd., priority 2012, dated 2025).

For data set [1], the system named is amyotrophic lateral sclerosis (ALS) patients. Particulars: after 1.5 years of treatment; cited from earlier work.
The nature of data set [2]: Stability in Simulated Gastric Fluid (SGF). The format is in vitro ADME. The following applies: SGF:acetonitrile 9:1, 0.01 mg/mL, 37° C. As for the experimental part: (§1) Stability in Simulated Gastric Fluid (SGF) and Simulated Intestinal Fluid (SIF). Procedure from Baudy et. al. (J. Med. Chem. 2009, 52, 771-778) used. The physiological stability of pro-drugs was determined by examining the stability of the compound in SGF, and SIF at 37° C. The compounds were prepared in a 9:1 mixture of the appropriate test component (SGF, SIF) and acetonitrile to a final concentration of 0.01 mg/mL. The samples were thoroughly mixed and maintained at 37° C. Each sample was injected consecutively onto an Agilent 1100 system (Luna C18, 3 μm, 50 mm×3 mm; 1 mL/min; mobile phase of 0.1% trifluoroacetic acid in water/0.1% trifluoroacetic acid in acetonitrile) after a 3 h period. The percent remaining of pro-drug was calculated by comparing the area of pro-drug compound versus riluzole generated. The identities of the parent compounds and conversion products were confirmed by LC/MS.

Data set [3] can be described thus: Stability in Simulated Intestinal Fluid (SIF). The data set is classed as in vitro ADME. Particulars: SIF:acetonitrile 9:1, 0.01 mg/mL, 37° C. As for the experimental part: as §1
A short description of data set [4]: Metabolic stability in pooled human liver microsomes. The format is in vitro ADME. Particulars: human liver microsomes 0.5 mg/mL, 1 uM, NADPH, 37° C. As for the experimental part: (§2) Metabolic Stability: In vitro metabolic stability was determined in pooled mouse or human liver microsomes (BD Gentest) at a protein concentration of 0.5 mg/mL in reaction buffer (100 mM KH2PO4, pH 7.4 and 12 mM MgCl2). Each drug candidate was added to a final concentration of 1 uM. This mixture was pre-warmed to 37° C. for 10 minutes prior to starting the reaction with the addition of β-Nicotinamide adenine dinucleotide 2′-phosphate reduced (NADPH) to a final concentration of 1 mM. A parallel incubation lacking NADPH served as the control. After incubation for 30 min at 37° C., the reactions were quenched by the addition of acetonitrile containing 0.1% formic acid and internal standard, vortex mixed for 2 minutes and centrifuged at 4000 rpm for 10 minutes to pellet the precipitated protein. The resulting supernatant containing the drug candidate and its potential metabolites was diluted 5-fold with water containing 0.1% formic acid and submitted to LC-MS/MS analysis. […]
(§3) LC-MS/MS Analysis: An aliquot from each incubation was analyzed by LC-MS/MS with SRM detection in the positive ionization mode using an ABSciex API 5500 QTrap Mass Spectrometer interfaced via the ABSciex Turbo V IonSpray source (ESI) to an Eksigent ExpressHT LC system. […] A fast gradient, from 15 to 85% organic in 2.5 minutes, with run time of 5.0 minutes, and flow rate of 50 uL/min was utilized. Peak areas were integrated using MultiQuant v2.0 software from ABSciex.
For orientation: Liver microsomes are a subcellular fraction often used to study metabolism.

A short description of data set [5]: Plasma stability in fresh mouse plasma. The data set is classed as in vitro ADME. The following applies: 1 uM, 37° C. As for the experimental part: (§4) Plasma Stability: Assessment of plasma stability was carried out by individual incubations of drug candidates in fresh mouse or human control plasma at a concentration of 1 uM for 1 hour at 37° C. After which, the samples were de-proteinized by addition of 2 volumes of acetonitrile containing 0.1% formic acid and internal standard, vortex mixed for 2 minutes and centrifuged at 4000 rpm for 10 minutes to pellet precipitated protein. The resulting supernatant containing the drug candidates was diluted 5-fold with water containing 0.1% formic acid and submitted to LC-MS/MS analysis. All determinations were done in triplicate. […]
as §3

Data set [6] is described as follows: Plasma stability in fresh human plasma. The format is in vitro ADME. Particulars: 1 uM, 37° C. As for the experimental part:
as §4, §3

The nature of data set [7]: Metabolic stability in pooled mouse liver microsomes. The data set is classed as in vitro ADME. Particulars: mouse liver microsomes 0.5 mg/mL, 1 uM, NADPH, 37° C. As for the experimental part:
as §2, §3

Turning to `Nc1nc2ccc(OC(F)(F)F)cc2s1` [riluzole, 6-(trifluoromethoxy)-1,3-benzothiazol-2-amine], the increase of lifespan in data set [1] is 2-3 months.

For `O=C(CCC(=O)Nc1nc2ccc(OC(F)(F)F)cc2s1)NCc1cccnc1` [Cpd 23, N-Pyridin-3-ylmethyl-N′-(6-trifluoromethoxy-benzothiazol-2-yl)-succinamide], the “SGF (3 hours), percent of pro-drug metabolized to riluzole” value (“SGF (3 hours), percent” for short) in data set [2] is 0%. Moreover, in data set [3], the “SIF (3 hours), percent of pro-drug metabolized to riluzole” value (shortened to “SIF (3 hours), percent”) was 10%. For the same molecule, in data set [4], the “Metabolic Stability human (30 minutes), percent of pro-drug metabolized to riluzole” value is 4%. Also, in data set [5], the “Plasma Stability mouse (1 hour), percent of pro-drug metabolized to riluzole” value (“Plasma Stability mouse (1 hour), percent” below) was 26%. Also, the “Plasma Stability Human (1 hour), percent of pro-drug metabolized to riluzole” value (“Plasma Stability Human (1 hour), percent” below) in data set [6] stood at 0%. In data set [7], the “Metabolic Stability mouse (30 minutes), percent of pro-drug metabolized to riluzole” value came to 0%.

Consider `CC(C)COC(=O)Nc1nc2ccc(OC(F)(F)F)cc2s1` [Cpd 16, (6-Trifluoromethoxy-benzothiazol-2-yl)-carbamic acid isobutyl ester], for which the “SGF (3 hours), percent” value in data set [2] is 5%. In data set [3], the “SIF (3 hours), percent” value was 0%. The “Metabolic Stability human (30 minutes), percent of pro-drug metabolized to riluzole” value in data set [4] is listed as 14%. In addition, in data set [5], the “Plasma Stability mouse (1 hour), percent” value came to 0%. In addition, the “Plasma Stability Human (1 hour), percent” value in data set [6] is 0%. In addition, in data set [7], the “Metabolic Stability mouse (30 minutes), percent of pro-drug metabolized to riluzole” value is reported as 23%.

Consider `CC(C)(C)OC(=O)CCC(=O)Nc1nc2ccc(OC(F)(F)F)cc2s1` [Cpd 22, N-(6-Trifluoromethoxy-benzothiazol-2-yl)-succinamic acid tert-butyl ester], for which the “SGF (3 hours), percent” value in data set [2] is listed as 0%. In addition, the “SIF (3 hours), percent” value in data set [3] is 0%. In data set [4], the “Metabolic Stability human (30 minutes), percent of pro-drug metabolized to riluzole” value is given as 21%. In addition, the “Plasma Stability mouse (1 hour), percent” value in data set [5] worked out at 0%. In addition, the “Plasma Stability Human (1 hour), percent” value in data set [6] is listed as 0%. Besides, the “Metabolic Stability mouse (30 minutes), percent of pro-drug metabolized to riluzole” value in data set [7] stood at 0%.

`O=C(Cc1ccccc1[N+](=O)[O-])Nc1nc2ccc(OC(F)(F)F)cc2s1` [Cpd 27, 2-(2-Nitro-phenyl)-N-(6-trifluoromethoxy-benzothiazol-2-yl)-acetamide]: the “SGF (3 hours), percent” value in data set [2] is 0%. In data set [3], the “SIF (3 hours), percent” value is recorded as 0%. Moreover, in data set [4], the “Metabolic Stability human (30 minutes), percent of pro-drug metabolized to riluzole” value was determined as 22%. The “Plasma Stability mouse (1 hour), percent” value in data set [5] amounted to 0%. In addition, the “Plasma Stability Human (1 hour), percent” value in data set [6] is 13%. The “Metabolic Stability mouse (30 minutes), percent of pro-drug metabolized to riluzole” value in data set [7] is listed as 59%.

Turning to `CNCCCCC(=O)Nc1nc2ccc(OC(F)(F)F)cc2s1` [Cpd 25, 5-Methylamino-pentanoic acid (6-trifluoromethoxy-benzothiazol-2-yl)-amide], the “SGF (3 hours), percent” value in data set [2] was 0%. Besides, in data set [3], the “SIF (3 hours), percent” value is 0%. Moreover, the “Metabolic Stability human (30 minutes), percent of pro-drug metabolized to riluzole” value in data set [4] is listed as 0%. The “Plasma Stability mouse (1 hour), percent” value in data set [5] was 0%. The “Plasma Stability Human (1 hour), percent” value in data set [6] worked out at 0%. The “Metabolic Stability mouse (30 minutes), percent of pro-drug metabolized to riluzole” value in data set [7] is given as 78%.

Turning to `CCCOC(=O)Nc1nc2ccc(OC(F)(F)F)cc2s1` [Cpd 14, (6-Trifluoromethoxy-benzothiazol-2-yl)-carbamic acid propyl ester], in data set [2], the “SGF (3 hours), percent” value is recorded as 0%. Further, the “SIF (3 hours), percent” value in data set [3] is recorded as 0%. Further, the “Metabolic Stability human (30 minutes), percent of pro-drug metabolized to riluzole” value in data set [4] came to 34%. In data set [5], the “Plasma Stability mouse (1 hour), percent” value was determined as 0%. Besides, the “Plasma Stability Human (1 hour), percent” value in data set [6] was determined as 0%. Also, the “Metabolic Stability mouse (30 minutes), percent of pro-drug metabolized to riluzole” value in data set [7] stood at 15%.

With `COC(=O)Nc1nc2ccc(OC(F)(F)F)cc2s1` [Cpd 12, (6-Trifluoromethoxy-benzothiazol-2-yl)-carbamic acid methyl ester], in data set [2], the “SGF (3 hours), percent” value was 0%. Besides, the “SIF (3 hours), percent” value in data set [3] is listed as 0%. The “Metabolic Stability human (30 minutes), percent of pro-drug metabolized to riluzole” value in data set [4] came to 0%. Besides, in data set [5], the “Plasma Stability mouse (1 hour), percent” value worked out at 0%. For the same molecule, the “Plasma Stability Human (1 hour), percent” value in data set [6] amounted to 15%. Further, the “Metabolic Stability mouse (30 minutes), percent of pro-drug metabolized to riluzole” value in data set [7] was determined as 10%.

With `N[C@H](Cc1ccccc1)C(=O)Nc1nc2ccc(OC(F)(F)F)cc2s1` [Cpd 4, (R)-2-Amino-3-phenyl-N-(6-trifluoromethoxy-benzothiazol-2-yl)-propionamide], the “SGF (3 hours), percent” value in data set [2] was 3%. Further, the “SIF (3 hours), percent” value in data set [3] is on record as 0%. In addition, in data set [4], the “Metabolic Stability human (30 minutes), percent of pro-drug metabolized to riluzole” value was found to be 18%. Further, in data set [5], the “Plasma Stability mouse (1 hour), percent” value is recorded as 47%. The “Plasma Stability Human (1 hour), percent” value in data set [6] is recorded as 6%. Besides, the “Metabolic Stability mouse (30 minutes), percent of pro-drug metabolized to riluzole” value in data set [7] was 12%.

For `CCOC(=O)Nc1nc2ccc(OC(F)(F)F)cc2s1` [Cpd 13, (6-Trifluoromethoxy-benzothiazol-2-yl)-carbamic acid ethyl ester], in data set [2], the “SGF (3 hours), percent” value was 0%. Moreover, the “SIF (3 hours), percent” value in data set [3] is listed as 0%. In data set [4], the “Metabolic Stability human (30 minutes), percent of pro-drug metabolized to riluzole” value was found to be 7%. The “Plasma Stability mouse (1 hour), percent” value in data set [5] was 0%. Also, the “Plasma Stability Human (1 hour), percent” value in data set [6] was found to be 0%. In addition, the “Metabolic Stability mouse (30 minutes), percent of pro-drug metabolized to riluzole” value in data set [7] came out at 8%.

On to `N[C@@H](COCc1ccccc1)C(=O)Nc1nc2ccc(OC(F)(F)F)cc2s1` [Cpd 10, (S)-2-Amino-3-benzyloxy-N-(6-trifluoromethoxy-benzothiazol-2-yl)-propionamide], for which the “SGF (3 hours), percent” value in data set [2] was 0%. Further, in data set [3], the “SIF (3 hours), percent” value is reported as 0%. For the same molecule, in data set [4], the “Metabolic Stability human (30 minutes), percent of pro-drug metabolized to riluzole” value is on record as 15%. In data set [5], the “Plasma Stability mouse (1 hour), percent” value is given as 52%. Further, the “Plasma Stability Human (1 hour), percent” value in data set [6] is given as 9%. Besides, the “Metabolic Stability mouse (30 minutes), percent of pro-drug metabolized to riluzole” value in data set [7] worked out at 0%.

Turning to `NCCCCC(=O)Nc1nc2ccc(OC(F)(F)F)cc2s1` [Cpd 26, 5-Amino-pentanoic acid (6-trifluoromethoxy-benzothiazol-2-yl)-amide], in data set [2], the “SGF (3 hours), percent” value was 0%. The “SIF (3 hours), percent” value in data set [3] is reported as 0%. The “Metabolic Stability human (30 minutes), percent of pro-drug metabolized to riluzole” value in data set [4] turned out to be 19%. Also, the “Plasma Stability mouse (1 hour), percent” value in data set [5] is 0%. Also, in data set [6], the “Plasma Stability Human (1 hour), percent” value is listed as 5%. Moreover, in data set [7], the “Metabolic Stability mouse (30 minutes), percent of pro-drug metabolized to riluzole” value is reported as 66%.
